Source: patent US20100041642A1, “UREA INHIBITORS OF MAP KINASES” (LOCUS PHARMACEUTICALS, INC., priority 2008, published 2010)

These molecules were tested against p38 (Homo sapiens, UniProt Q16539) (assay: Protein Kinase Assay (33P incorporation from γ-[33P]ATP into GST-ATF-2)). Conditions: 2 nM p38, preincubated 20 min at 30° C.; 10 uM cold ATP, 2 uM GST-ATF2, 70 min; read-out: ACT. (Activity), IC50 category in Protein Kinase Assay.
Assay type: biochemical
Method in brief: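 Compounds preincubated 20 min at 30 °C with 2 nM p38; reaction started with 2 uM GST-ATF-2 (aa 19-96) and 10 uM ATP plus γ-[33P]ATP, pH 7.5, 70 min at 30 °C, 2% DMSO. Phosphoric acid stop; 33P-labelled substrate captured on phosphocellulose and counted by scintillation.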

Sequence of p38 (Q16539 whole entry): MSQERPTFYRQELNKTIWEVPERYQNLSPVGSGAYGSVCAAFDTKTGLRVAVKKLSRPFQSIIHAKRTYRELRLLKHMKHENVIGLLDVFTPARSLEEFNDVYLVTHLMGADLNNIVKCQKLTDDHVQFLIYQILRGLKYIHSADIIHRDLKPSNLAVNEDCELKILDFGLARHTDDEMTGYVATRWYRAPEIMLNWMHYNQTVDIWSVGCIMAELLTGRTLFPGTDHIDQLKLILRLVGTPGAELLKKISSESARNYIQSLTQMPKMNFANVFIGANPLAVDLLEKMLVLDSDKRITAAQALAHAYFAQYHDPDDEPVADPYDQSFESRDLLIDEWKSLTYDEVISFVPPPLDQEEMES

For Cc1ccc(NC(=O)Nc2sc(C(C)(C)C)cc2C(=O)N2CCN(C)C(=O)C2(C)C)cc1-c1cnc(NCC(O)CO)nc1 (centres unmarked) [1-(5-tert-butyl-3-(2,2,4-trimethyl-3-oxopiperazine-1-carbonyl)thiophen-2-yl)-3-(3-(2-(2,3-dihydroxypropylamino)pyrimidin-5-yl)-4-methylphenyl)urea], which IC50 is on record?
Its IC50 is under 100 nM.

With CCc1ccc(-c2cc(NC(=O)Nc3sc(C(C)(C)C)cc3C(=O)N3CCNC(=O)C3(C)C)cc(F)c2C)cn1 [1-(5-tert-butyl-3-(2,2-dimethyl-3-oxopiperazine-1-carbonyl)thiophen-2-yl)-3-(3-(6-ethylpyridin-3-yl)-5-fluoro-4-methylphenyl)urea] as the molecule, how does the IC50 read?
The IC50 was under 100 nM.

Cc1ccc(-c2ccc(N3CCOCC3)cn2)cc1NC(=O)Nc1cc(C(C)(C)C)sc1C(=O)N1CCNC(=O)C1(C)C [1-(5-tert-butyl-2-(2,2-dimethyl-3-oxopiperazine-1-carbonyl)thiophen-3-yl)-3-(2-methyl-5-(5-morpholinopyridin-2-yl)phenyl)urea] was tested. Which IC50 did it give?
Its IC50 is under 100 nM.

How did the IC50 turn out when CCc1ccc(-c2cc(NC(=O)Nc3sc(C(C)(C)C)cc3C(=O)N3CCN(CCN(C)C)C(=O)C3(C)C)ccc2C)cn1 [1-(5-tert-butyl-3-(4-(2-(dimethylamino)ethyl)-2,2-dimethyl-3-oxopiperazine-1-carbonyl)thiophen-2-yl)-3-(3-(6-ethylpyridin-3-yl)-4-methylphenyl)urea] was run?
Its IC50 is under 1000 nM.

Which IC50 does the source give for CC(C)(C)c1cc(C(=O)N2CCNC(=O)C2(C)C)c(NC(=O)Nc2cccc(-c3ccncc3)c2)s1 [1-(5-tert-butyl-3-(2,2-dimethyl-3-oxopiperazine-1-carbonyl)thiophen-2-yl)-3-(3-(pyridin-4-yl)phenyl)urea] here?
Its IC50 is under 100 nM.

COc1ccc(-c2cc(NC(=O)Nc3sc(C(C)(C)C)cc3C(=O)N3CCN(CCO)C(=O)C3(C)C)ccc2C)cn1 [1-(5-tert-butyl-3-(4-(2-hydroxyethyl)-2,2-dimethyl-3-oxopiperazine-1-carbonyl)thiophen-2-yl)-3-(3-(6-methoxypyridin-3-yl)-4-methylphenyl)urea] was tested. Which IC50 did it give?
Its IC50 is under 100 nM.

C#Cc1ccc(-c2cc(NC(=O)Nc3sc(C(C)(C)C)cc3C(=O)N3CCNC(=O)C3(C)C)ccc2C)cn1 [1-(5-tert-butyl-3-(2,2-dimethyl-3-oxopiperazine-1-carbonyl)thiophen-2-yl)-3-(3-(6-ethynylpyridin-3-yl)-4-methylphenyl)urea] was tested. Which IC50 did it give?
Its IC50 is under 100 nM.

Which IC50 does the source give for COc1ccc(-c2cc(NC(=O)Nc3sc(C(C)(C)C)cc3C(=O)N3CCN(C)C(=O)C3(C)C)cc(F)c2C)cn1 [1-(5-tert-butyl-3-(2,2,4-trimethyl-3-oxopiperazine-1-carbonyl)thiophen-2-yl)-3-(3-fluoro-5-(6-methoxypyridin-3-yl)-4-methylphenyl)urea] here?
The IC50 was under 100 nM.

Cc1ccc(NC(=O)Nc2cn(C(C)(C)C)nc2C(=O)N2CCN(C)C(=O)C2(C)C)cc1-c1ccc(CN2CCOCC2)nc1 [1-(1-tert-butyl-3-(2,2,4-trimethyl-3-oxopiperazine-1-carbonyl)-1H-pyrazol-4-yl)-3-(4-methyl-3-(6-(morpholinomethyl)pyridin-3-yl)phenyl)urea] was tested. Which IC50 did it give?
The IC50 was under 100 nM.

CC(C)(C)c1cc(C(=O)N2CCNC(=O)C2(C)C)c(NC(=O)Nc2cccc(-c3ccc(OCCCc4ccccn4)nc3)c2)s1 [1-(5-tert-butyl-3-(2,2-dimethyl-3-oxopiperazine-1-carbonyl)thiophen-2-yl)-3-(3-(6-(3-(pyridin-2-yl)propoxy)pyridin-3-yl)phenyl)urea] was tested. Which IC50 did it give?
The IC50 was under 100 nM.

Cc1ccc(NC(=O)Nc2sc(C(C)(C)C)cc2C(=O)N2CCNC(=O)C2(C)C)cc1-c1c(C)noc1C [1-(5-tert-butyl-3-(2,2-dimethyl-3-oxopiperazine-1-carbonyl)thiophen-2-yl)-3-(3-(3,5-dimethylisoxazol-4-yl)-4-methylphenyl)urea] was tested. Which IC50 did it give?
The IC50 was under 100 nM.

Which IC50 does the source give for Cc1ccc(NC(=O)Nc2cn(C(C)(C)C)nc2C(=O)N2CCNC(=O)C2(C)C)cc1-c1cccnc1 [1-(1-tert-butyl-3-(2,2-dimethyl-3-oxopiperazine-1-carbonyl)-1H-pyrazol-4-yl)-3-(4-methyl-3-(pyridin-3-yl)phenyl)urea] here?
The IC50 was under 100 nM.

How did the IC50 turn out when Cc1ccc(NC(=O)Nc2sc(C(C)(C)C)cc2C(=O)N2CCNC(=O)C2(C)C)cc1-c1ccc(OC2CCOCC2)nc1 [1-(5-tert-butyl-3-(2,2-dimethyl-3-oxopiperazine-1-carbonyl)thiophen-2-yl)-3-(4-methyl-3-(6-(tetrahydro-2H-pyran-4-yloxy)pyridin-3-yl)phenyl)urea] was run?
The IC50 was under 100 nM.

Cc1ccc(NC(=O)Nc2cc(C(C)(C)C)oc2C(=O)N2CCNC(=O)C2(C)C)cc1-c1ccc(OCCN(C)C)nc1 [1-(5-tert-butyl-2-(2,2-dimethyl-3-oxopiperazine-1-carbonyl)furan-3-yl)-3-(3-(6-(2-(dimethylamino)ethoxy)pyridin-3-yl)-4-methylphenyl)urea] was tested. Which IC50 did it give?
Its IC50 is under 100 nM.

Which IC50 does the source give for CNC(=O)c1ccc(-c2cc(NC(=O)Nc3sc(C(C)(C)C)cc3C(=O)N3CCNC(=O)C3(C)C)ccc2C)cn1 [5-(5-(3-(5-tert-butyl-3-(2,2-dimethyl-3-oxopiperazine-1-carbonyl)thiophen-2-yl)ureido)-2-methylphenyl)-N-methylpyridine-2-carboxamide] here?
The IC50 was under 100 nM.

Which IC50 does the source give for CON(C)C(=O)c1ccc(-c2cc(NC(=O)Nc3sc(C(C)(C)C)cc3C(=O)N3CCN(C)C(=O)C3(C)C)ccc2C)cn1 [5-(5-(3-(5-tert-butyl-3-(2,2,4-trimethyl-3-oxopiperazine-1-carbonyl)thiophen-2-yl)ureido)-2-methylphenyl)-N-methoxy-N-methylpyridine-2-carboxamide] here?
Its IC50 is under 100 nM.

Which IC50 does the source give for Cc1ncc(NC(=O)Nc2sc(C(C)(C)C)cc2C(=O)N2CCN(C)C(=O)C2(C)C)cc1C#CC1CC1 [1-(5-tert-butyl-3-(2,2,4-trimethyl-3-oxopiperazine-1-carbonyl)thiophen-2-yl)-3-(5-(cyclopropylethynyl)-6-methylpyridin-3-yl)urea] here?
Its IC50 is under 100 nM.

With COc1ccc(-c2ccc(C)c(NC(=O)Nc3sc(C(C)(C)C)cc3C(=O)N3CCNC(=O)C3(C)C)c2)cn1 [1-(5-tert-butyl-3-(2,2-dimethyl-3-oxopiperazine-1-carbonyl)thiophen-2-yl)-3-(5-(6-methoxypyridin-3-yl)-2-methylphenyl)urea] as the molecule, how does the IC50 read?
The IC50 was under 100 nM.

With CCOc1ccc(-c2cc(NC(=O)Nc3cn(C(C)(C)C)nc3C(=O)N3CCN(C)C(=O)C3(C)C)ccc2C)cn1 [1-(1-tert-butyl-3-(2,2,4-trimethyl-3-oxopiperazine-1-carbonyl)-1H-pyrazol-4-yl)-3-(3-(6-ethoxypyridin-3-yl)-4-methylphenyl)urea] as the molecule, how does the IC50 read?
Its IC50 is under 100 nM.

With CCNC(=O)c1ccc(-c2cc(NC(=O)Nc3sc(C(C)(C)C)nc3C(=O)N3CCN(C)C(=O)C3(C)C)ccc2C)cn1 [5-(5-(3-(2-tert-butyl-4-(2,2,4-trimethyl-3-oxopiperazine-1-carbonyl)thiazol-5-yl)ureido)-2-methylphenyl)-N-ethylpyridine-2-carboxamide] as the molecule, how does the IC50 read?
Its IC50 is under 100 nM.

Which IC50 does the source give for Cc1ccc(NC(=O)Nc2sc(C(C)(C)C)cc2C(=O)N2CCN(C)C(=O)C2(C)C)cc1-c1ccc(C(C)N2CCOCC2)nc1 (centres unmarked) [1-(5-tert-butyl-3-(2,2,4-trimethyl-3-oxopiperazine-1-carbonyl)thiophen-2-yl)-3-(4-methyl-3-(6-(1-morpholinoethyl)pyridin-3-yl)phenyl)urea] here?
Its IC50 is under 100 nM.

With Cc1ccc(NC(=O)Nc2sc(C(C)(C)C)nc2C(=O)N2CCN(C)C(=O)C2(C)C)cc1-c1ccc(CN2CCOCC2)cn1 [1-(2-tert-butyl-4-(2,2,4-trimethyl-3-oxopiperazine-1-carbonyl)thiazol-5-yl)-3-(4-methyl-3-(5-(morpholinomethyl)pyridin-2-yl)phenyl)urea] as the molecule, how does the IC50 read?
Its IC50 is under 100 nM.

With Cc1ccc(NC(=O)Nc2sc(C(C)(C)C)cc2C(=O)N2CCN(C)C(=O)C2(C)C)cc1-c1ccc(-n2cccn2)nc1 [1-(3-(6-(1H-pyrazol-1-yl)pyridin-3-yl)-4-methylphenyl)-3-(5-tert-butyl-3-(2,2,4-trimethyl-3-oxopiperazine-1-carbonyl)thiophen-2-yl)urea] as the molecule, how does the IC50 read?
Its IC50 is under 100 nM.

Which IC50 does the source give for CCc1ccc(-c2cc(NC(=O)Nc3sc(C(C)(C)C)cc3C(=O)N3CCN(C)C(=O)C3(C)C)ccc2C)cn1 [1-(5-tert-butyl-3-(2,2,4-trimethyl-3-oxopiperazine-1-carbonyl)thiophen-2-yl)-3-(3-(6-ethylpyridin-3-yl)-4-methylphenyl)urea] here?
The IC50 was under 100 nM.

How did the IC50 turn out when Cc1ccc(NC(=O)Nc2sc(C(C)(C)C)cc2C(=O)N2CCN(C)C(=O)C2(C)C)cc1-c1ccc(NS(C)(=O)=O)nc1 [N-(5-(5-(3-(5-tert-butyl-3-(2,2,4-trimethyl-3-oxopiperazine-1-carbonyl)thiophen-2-yl)ureido)-2-methylphenyl)pyridin-2-yl)methanesulfonamide] was run?
The IC50 was under 100 nM.

Which IC50 does the source give for COc1ccc(-c2cc(NC(=O)Nc3sc(C(C)(C)C)cc3C(=O)N3CCNC(=O)C3(C)C)c(F)cc2C)cn1 [1-(5-tert-butyl-3-(2,2-dimethyl-3-oxopiperazine-1-carbonyl)thiophen-2-yl)-3-(2-fluoro-5-(6-methoxypyridin-3-yl)-4-methylphenyl)urea] here?
Its IC50 is under 100 nM.

With CCc1ccc(-c2cc(NC(=O)Nc3sc(C(C)(C)C)cc3C(=O)N3CCN(C)C(=O)C3(C)C)cc(F)c2C)cn1 [1-(5-tert-butyl-3-(2,2,4-trimethyl-3-oxopiperazine-1-carbonyl)thiophen-2-yl)-3-(3-(6-ethylpyridin-3-yl)-5-fluoro-4-methylphenyl)urea] as the molecule, how does the IC50 read?
The IC50 was under 100 nM.

For CCNC(=O)c1ccc(-c2cc(NC(=O)Nc3cn(C(C)(C)C)nc3C(=O)N3CCN(C)C(=O)C3(C)C)ccc2C)cn1 [5-(5-(3-(1-tert-butyl-3-(2,2,4-trimethyl-3-oxopiperazine-1-carbonyl)-1H-pyrazol-4-yl)ureido)-2-methylphenyl)-N-ethylpyridine-2-carboxamide], which IC50 is on record?
Its IC50 is under 100 nM.

For Cc1ccc(NC(=O)Nc2sc(C(C)(C)C)cc2C(=O)N2CCNC(=O)C2(C)C)cc1-c1ccc(OCCN2CCNCC2)nc1 [1-(5-tert-butyl-3-(2,2-dimethyl-3-oxopiperazine-1-carbonyl)thiophen-2-yl)-3-(4-methyl-3-(6-(2-(piperazin-1-yl)ethoxy)pyridin-3-yl)phenyl)urea], which IC50 is on record?
The IC50 was under 100 nM.
